Columns and labels:
[1] = chronic/long-term
[2] = system: Anas platyrhynchos; conditions: acute; oral; unspecified; mortality
[3] = system: Apis mellifera; conditions: acute; dermal; mortality
[4] = system: Canidae; conditions: chronic; duration: 1 years; oral; Dog Other; hematological
[5] = system: Colinus virginianus; conditions: for LD50: acute, oral, mortality
[6] = system: Daphnia magna; conditions: chronic/long-term; duration: 21 days; mortality
[7] = system: Mus musculus; conditions: acute; oral; mortality
[8] = system: Oncorhynchus mykiss; conditions: chronic/long-term; growth
[9] = system: Rattus norvegicus; conditions: oral
[10] = system: Tagia sp.; conditions: acute; duration: 14 days; mortality

## O=C(NC(=O)c1c(F)cccc1F)Nc1ccc(Cl)cc1 [Diflubenzuron]
[1]
  NOEL: 3680 mg/kg-day
[2]
  LD50: > 5000 mg/kg
[3]
  LD50: 0.05 µg/piece
[4]
  NOAEL: 10 mg/kg-day
[5]; diet
  LD50: > 1210 mg/kg-day
[5]
  LD50: > 5000 mg/kg
[5]; reproduction developmental
  NOEC: 42.7 mg/kg-day
[6]
  NOEC: 4e-05 mg/L
[7]
  LD50: > 4640 mg/kg
[8]
  NOEC: 0.2 mg/L
[9]; acute, mortality
  LD50: 4640 mg/kg
[9]; subchronic, duration: 13 weeks, hematological
  NOAEL: 11 mg/kg-day
[10]
  LC50: > 1000 mg/kg

From EPA's ToxValDB 9.5 (doi:10.2903/j.efsa.2009.332r)
